Test results taken from US10668057B2, “Compositions and methods for inducing conformational changes in cereblon and other E3 ubiquitin ligases” (Celgene Corporation, priority 2014, dated 2020).

Tests used:
CRBN^WT = target: T1, CRBN^WT (Homo sapiens, UniProt Q96SW2); test: Thalidomide analog-coupled affinity bead assay, DF15R CRBN^WT cell extracts; assay type: binding; settings: preincubation of cell extracts with free compound
T1 construct: re-express full length wild type (CRBN^WT), W386A (CRBN^W386A) or W400A (CRBN^W400A) mutant versions of CRBN; FLAG; expressed in transfected cells; host or cells: DF15R (CRBN-deficient myeloma line), lentiviral transduction, puromycin selection; cell extract
Experimental: (§1) DF15, DF15R or DF15R derived cell line extracts were prepared in NP 40 lysis buffer (0.5% NP40, 50 mM Tris HCl (pH 8.0), 150 mM NaCl, 0.5 mM DTT, 0.25 mM PMSF, 1× protease inhibitor mix (Roche, Indianapolis, Ind.) at approximately 2×10^8 cells per ml […]. Cell debris and nucleic acids were cleared by centrifugation (14,000 rpm 30 min 4° C.). In competition experiments 0.5 ml (3-5 mg protein) aliquots of the resulting extracts were preincubated (15 min room temp.) with 5 μl DMSO (control) or 5 μl compound at varying concentrations in DMSO. Thalidomide analog-coupled beads (0.3-0.5 mg) were added to protein extracts and samples rotated (2 hours, 4° C.). Beads were washed three times with 0.5 ml NP40 buffer, and then bound proteins were eluted with SDS-PAGE sample buffer.

CRBN^E377V = target: T2, CRBN^E377V (Homo sapiens, UniProt Q96SW2, E377V); test: Thalidomide analog-coupled affinity bead assay, DF15R CRBN^E377V cell extracts; assay type: binding; settings: preincubation of cell extracts with free compound, comparable to CRBN^WT
T2 construct: Cell lines re-expressing RFP or full length CRBN wild type or E377V mutant; expressed in transfected cells; host or cells: DF15R (CRBN-deficient myeloma line), lentiviral system; cell extract
Experimental: as §1
To probe the function of the residues proximal to the bound IMiD® drug, we performed mutagenesis of residue E377 to valine in the human CRBN sequence and re-expressed the protein using a lentiviral system in DF15R cells. Cell extracts from this line were used to assay the ability of CRBN^E377V to bind IMiD® compound.

[1] = mice and rats; cited from earlier work
CRBN [2] = target: T3, CRBN (Homo sapiens, UniProt Q96SW2); settings: in vitro; cited from earlier work
[3] = tested on: TMD8 (ABC) or Karpas 422 (GCB) cells; test: 3H-thymidine incorporation proliferation assay, co-treatment with lenalidomide; assay type: cell-based; settings: for anti-proliferative effects on co-treatment with lenalidomide: co-treatment with 10 μM lenalidomide
[4] = tested on: panel of tumor cell lines; test: Potency across a panel of tumor cell lines; assay type: cell-based
Experimental: The potency of CC-885 was assessed across a panel of tumor cell lines, including B-lymphoma, breast, CNS, colon, kidney, leukemia, lung, melanoma, multiple myeloma, ovary and prostate.

[5] = tested on: DF15 (sensitive), DF15R (resistant; CRBNnull) cells; test: Cell proliferation assay of DF15, DF15R and DF15R-derived cells with CC-885; assay type: cell-based
MDA-MB-231 = test: Growth inhibition and pro-apoptotic activity in breast cancer cells treated with CRBN siRNA; assay type: cell-based; settings: CRBN siRNA vs negative control
Experimental: Breast cancer cells (MDA-MB-231) were treated with CRBN siRNA or a negative control. CC-885 was added at a concentration between 0 to 100 μM, and CRBN levels were assessed at 48 hours post treatment.

CRBN [6] = target: T3, CRBN; test: Thalidomide analog affinity bead competition, U266 cell extracts; assay type: binding; parameters: extracts prepared from U266 multiple myeloma cells; endogenous in cells; host or cells: U266 multiple myeloma cells (cell extract); settings: U266 MM cell extracts, competition with thalidomide analog affinity beads
Experimental: Immunoblot analysis of extracts prepared from U266 multiple myeloma cells and pre-incubated with vehicle DMSO (D), Pomalidomide (Pom) or CC-885 at the indicated concentrations, and bound to thalidomide analog affinity beads, washed and eluted with SDS buffer as previously described (Ito et al, 2010; Lopez-Girona et al, 2012). Samples were subjected to SDS-PAGE and immunoblot analysis using anti-CRBN 65-76 (1:10,000 dilution; Red signal) and anti-DDB1 (Cell Signaling) (1:2,000 dilution; Green signal). A LI-COR Odissey system was used to quantify CRBN band density and relative amounts of CRBN were determined by averaging at least three DMSO controls and expressing CRBN in each competition sample as percent inhibition of CRBN protein relative to the averaged controls as 100% binding. […] Cell proliferation assay of DF15 (sensitive), DF15R (resistant; CRBNnull) cells treated with a dose response of CC-885. Assays were done in triplicate and error bars represent s.d. Data for each cell line was normalized to treatment with vehicle (DMSO). […] Cell proliferation assay of DF15 (sensitive), DF15R (resistant; CRBNnull), DF15R-hCRBNWT (human CRBN), DF15R-RFP cells treated with a dose response of CC-885. […] Assays were done in triplicate and error bars represent s.d. Data for each cell line was normalized to treatment with vehicle (DMSO). […]

H929 = test: Apoptosis in multiple myeloma cell line H929; assay type: cell-based; settings: 0.01 nM to 1000 nM, assessed at 24 hrs
Experimental: The multiple myeloma cell line, H929, was cultured and treated with CC-885 or other CMA analogs at various concentrations from 0.01 nM to 1000 nM. Apoptosis was assessed at 24 hrs. later.

IL-2 = IL-2 induction in mouse splenocytes; assay type: cell-based
Excerpt: FIGS. 26A-26B show IL2 costimulation by pomalidomide. FIG. 26A: Co-stimulation of IL2 release by pomalidomide in human PBMCs treated with anti-CD3. Data are shown as mean±s.d. FIG. 26B: Costimulation of IL2 release by anti-CD28 (squares) or pomalidomide (circles) in mouse PBMC treated with anti-CD3. Data are shown as mean±s.d.

H929 and U266 = test: Cell viability in CRBN inducible shRNA knockdown myeloma cells; assay type: cell-based; settings: CRBN inducible knockdown vs shControl, 5 day treatment
Excerpt: FIG. 25A: An inducible shRNA construct targeting CRBN or a control construct was transduced into the multiple myeloma cell lines H929 and U266. Inducible shRNA expression (marked by turbo-RFP) was monitored by flow cytometry over a period of 1 to 9 days as indicated in the histograms (Top row). […] FIG. 25B: CRBN protein expression was quantified by Western blotting. […] Data are shown as mean of three independent experiments±s.d.
Inducible shRNA constructs targeting CRBN or a control construct (Open Biosystems) were transduced using spinoculation methodology into the multiple myeloma cell lines H929 and U266. Stably transduced cells were selected with puromycin. Inducible shRNA expression (marked by RFP) was monitored by fluorescence microscopy and flow cytometry using 1 μg/mL doxycycline. CRBN protein expression was quantified by Western blotting. Cell proliferation and viability were assessed by 7AAD/flow cytometry assays. 6.9.2.5 Immunoblot and Immunohistochemistry

DF15R cells = test: Cell proliferation assay of DF15R cells re-expressing CRBN wild type or mutants; assay type: cell-based

O=C1CCC(N2C(=O)c3ccccc3C2=O)C(=O)N1 (racemic) [thalidomide]
competition for CRBN binding to thalidomide analog-beads (CRBN^WT): competed for binding to the beads
competition for CRBN^E377V binding to thalidomide analog-beads (CRBN^E377V): competed
teratogenic effects [1]: insensitive
auto-ubiquitination of CRBN (CRBN [2]): able to inhibit

Cc1ccc(NC(=O)NCc2ccc3c(c2)CN(C2CCC(=O)NC2=O)C3=O)cc1Cl (stereo not shown) [CC-885, 1-(3-chloro-4-methylphenyl)-3-((2-(2,6-dioxopiperidin-3-yl)-1-oxoisoindolin-5-yl)methyl)urea]
anti-proliferative effects on co-treatment with lenalidomide [3]: blocks anti-proliferative effects
potency across tumor cell line panel ([4]; B-lymphoma, breast, CNS, colon, kidney, leukemia, lung, melanoma, multiple myeloma, ovary and prostate): potent
Therapeutic Index ([4]; toxic effects at low doses): low
anti-proliferative activity after re-expression of human CRBN ([5]; DF15R-hCRBNWT): recues CC-885 anti-proliferative activity
anti-proliferative activity, dependence on CRBN ([5]; DF15 vs DF15R (CRBNnull)): CRBN is required
growth inhibition, dependence on CRBN (MDA-MB-231): CRBN is required
pro-apoptotic activity, dependence on CRBN (MDA-MB-231): CRBN is required
binding to CRBN protein (CRBN [6]): binds
early apoptosis (H929): induced early apoptosis

Cc1nc2cccc(N)c2c(=O)n1C1CCC(=O)NC1=O (stereo not shown) [Compound A, 3-(5-amino-2-methyl-4-oxo-4H-quinazolin-3-yl)-piperidine-2,6-dione]
anti-proliferative effects on co-treatment with lenalidomide [3]: blocks anti-proliferative effects

Nc1cccc2c1CN(C1CCC(=O)NC1=O)C2=O (stereo not shown) [lenalidomide, 3-(4-amino-1-oxo-1,3-dihydro-isoindol-2-yl)-piperidine-2,6-dione]
competition for CRBN ([3]; against Compound A and CC-885): competes
teratogenic effects [1]: insensitive

Nc1cccc2c1C(=O)N(C1CCC(=O)NC1=O)C2=O (stereo not shown) [pomalidomide]
competition for CRBN binding to thalidomide analog-beads (CRBN^WT): competed for binding to the beads
competition for CRBN^E377V binding to thalidomide analog-beads (CRBN^E377V): competed
IL-2 inducing effects (IL-2): resistant
anti-proliferative effects (H929 and U266): reduced anti-proliferative effects
sensitivity to antiproliferative effect (DF15R cells; DF15R re-expressing CRBN^E377V): unable to rescue sensitivity
antiproliferative effect (DF15R cells; DF15R re-expressing CRBN^WT): regained antiproliferative effect
